Laboratory results published in article PMC5051273 (Phytotherapy research : PTR, 2015).

Target: mammalian target of rapamycin (mTOR) (Homo sapiens, UniProt P42345)
Assay: Invitrogen Z'-LYTE kinase assay, five concentrations
Assay type: biochemical

IC50: 708 nM
Structure (SMILES): C/C=C(/C=O)[C@@H](CC=O)CC(=O)OCCc1ccc(O)cc1 [oleocanthal]
